According to ChEMBL document CHEMBL1137710, “Synthesis and in vitro antitumor activity of new quinoxaline derivatives” (2009):

What was measured:
Format in all cases: functional
[1] = test system: SF-268; test: Anticancer activity against human SF268 cells assessed as cell growth at 100 uM after 48 hrs by sulforhodamine B assay; conditions: SF-268, 48 h, read-out: Activity
[2] = test system: MCF7; test: Anticancer activity against human MCF7 cells assessed as cell growth at 100 uM after 48 hrs by sulforhodamine B assay; conditions: MCF7, 48 h, read-out: Activity
[3] = test system: NCI-H460; test: Anticancer activity against human NCI-H460 cells assessed as cell growth at 100 uM after 48 hrs by sulforhodamine B assay; conditions: NCI-H460, 48 h, read-out: Activity

Question: What does the source list for `COc1ccc(Oc2nc3cc(N)cc(N)c3nc2-c2ccccc2)cc1OC`?
Answer: growth at 100 µM [1]: 131%; growth at 100 µM [2]: 117%; growth at 100 µM [3]: 118%

Question: Which results are given for `COc1ccc(Sc2nc3cc(N)cc(N)c3nc2-c2ccccc2)cc1OC`?
Answer: growth at 100 µM [1]: 136%; growth at 100 µM [2]: 121%; growth at 100 µM [3]: 119%
